# Reference: US20140093558A1, “STABLE CRYSTAL MODIFICATIONS OF DOTAP CHLORIDE” (MERCK PATENT GMBH, priority 2011, published 2014)
# Where two headings read alike, the source gives them in different places.
# Experiments:
# [1] = Hygroscopicity / handling properties; format: physicochemical; details: crystalline forms
# [2] = Storage stability of crystalline DOTAP chloride, remaining content by HPLC; format: physicochemical; details: for stability values compared with crystalline (2R,S)-DOTAP chloride: storage as in Tables 1 and 1a; for remaining content of (2R,S)-DOTAP chloride (HPLC) / remaining content/purity of (2R,S)-DOTAP chloride (HPLC): exclusion of air
# Procedure: In order to determine the stability of crystalline (2R,S)-DOTAP chloride, the substance is stored at 25° C. and 60% relative humidity (table 1) or at 40° C. and 75% relative humidity (table 1a) with exclusion of air. The remaining content of (2R,S)-DOTAP chloride is measured at periodic intervals and quoted in comparison to the initial value.
# The purity and content of DOTAP chloride are determined by means of HPLC using the following method:
# HPLC equipment: Agilent 1200 HPLC • column: ODS-3: 150×3 mm, 3 μm. GI Sciences: lnertsil • eluent A: 10 mM pentanesulfonic acid sodium salt in 0.085%ic aqueous H3PO4 • eluent B: 3.85 mM pentanesulfonic acid sodium salt in 94% acetonitrile containing 0.085%ic aqueous H3PO4
# • runtime: 25 min • flow: 1.5 ml/min • pressure: ca. 220 bar • column temperature: 50° C. • injection volume: 10 μl
# The stability determination can be repeated at any desired time, the values indicated in Tables 1 and 1a are reproducible.
# [3] = some in-vitro studies, compared with DOTAP chloride; cited from earlier work
# [4] = amorphous form, normal atmospheric humidity levels; cited from earlier work
# [5] = storage under protective gas at −20° C.; cited from earlier work
# [6] = Solubility in acetonitrile; format: physicochemical; details: room temperature
# [7] = 25° C., 60% relative humidity, 0 months
# [8] = 25° C., 60% relative humidity, 3 months
# [9] = 25° C., 60% relative humidity, 6 months
# [10] = 25° C., 60% relative humidity, 9 months
# [11] = 25° C., 60% relative humidity, 12 months
# [12] = 25° C., 60% relative humidity, 24 months
# [13] = 25° C., 60% relative humidity, 36 months
# [14] = 40° C., 75% relative humidity, 0 months
# [15] = 40° C., 75% relative humidity, 3 months
# [16] = 40° C., 75% relative humidity, 6 months
# [17] = 40° C., 75% relative humidity, 9 months
# [18] = 40° C., 75% relative humidity, 12 months
compound,measurement,setting,value
"(R)-1,2-dioleoyl-3-propyltrimethylammonium chloride [Crystalline (2R)-DOTAP chloride]",hygroscopicity,[1],remarkably reduced hygroscopicity
same,"stability values compared with crystalline (2R,S)-DOTAP chloride",[2],Crystalline (2R)- and (2S)-DOTAP chloride show comparable stability values.
CCCCCCCC/C=C\CCCCCCCC(=O)OCC(C[N+](C)(C)C)OC(=O)CCCCCCC/C=C\CCCCCCCC.COS(=O)(=O)[O-] (stereo not shown) [DOTAP methylsulfate],transfection rate,[3],better transfection rates than DOTAP chloride
"(S)-1,2-dioleoyl-3-propyltrimethylammonium chloride [Crystalline (2S)-DOTAP chloride]",hygroscopicity,[1],remarkably reduced hygroscopicity
same,"stability values compared with crystalline (2R,S)-DOTAP chloride",[2],Crystalline (2R)- and (2S)-DOTAP chloride show comparable stability values.
"CCCCCCCC/C=C\CCCCCCCC(=O)OCC(C[N+](C)(C)C)OC(=O)CCCCCCC/C=C\CCCCCCCC.[Cl-] (stereo not shown) [amorphous DOTAP chloride, 1,2-dioleoyloxy-3-trimethylammonium propane chloride]",hygroscopicity,[4],extremely hygroscopic
same,shelf life guaranteed by the manufacturer,[5],about 6 months
"CCCCCCCC/C=C\CCCCCCCC(=O)OCC(C[N+](C)(C)C)OC(=O)CCCCCCC/C=C\CCCCCCCC.[Cl-] (racemic) [(2R,S)-DOTAP chloride crystalline, (R,S)-1,2-dioleoyl-3-propyltrimethylammonium chloride]",hygroscopicity,[1],remarkably reduced hygroscopicity
same,"remaining content of (2R,S)-DOTAP chloride (HPLC)",[2]; [7],99.5 % by weight
same,"remaining content/purity of (2R,S)-DOTAP chloride (HPLC)",[2]; [7],99.7 Area-%
same,"remaining content of (2R,S)-DOTAP chloride (HPLC)",[2]; [8],99.7 % by weight
same,"remaining content/purity of (2R,S)-DOTAP chloride (HPLC)",[2]; [8],99.6 Area-%
same,"remaining content of (2R,S)-DOTAP chloride (HPLC)",[2]; [9],99.4 % by weight
same,"remaining content/purity of (2R,S)-DOTAP chloride (HPLC)",[2]; [9],99.5 Area-%
same,"remaining content of (2R,S)-DOTAP chloride (HPLC)",[2]; [10],99.2 % by weight
same,"remaining content/purity of (2R,S)-DOTAP chloride (HPLC)",[2]; [10],99.2 Area-%
same,"remaining content of (2R,S)-DOTAP chloride (HPLC)",[2]; [11],99.5 % by weight
same,"remaining content/purity of (2R,S)-DOTAP chloride (HPLC)",[2]; [11],99.5 Area-%
same,"remaining content of (2R,S)-DOTAP chloride (HPLC)",[2]; [12],99.5 % by weight
same,"remaining content/purity of (2R,S)-DOTAP chloride (HPLC)",[2]; [12],99.7 Area-%
same,"remaining content of (2R,S)-DOTAP chloride (HPLC)",[2]; [13],99.7 % by weight
same,"remaining content/purity of (2R,S)-DOTAP chloride (HPLC)",[2]; [13],99.3 Area-%
same,degradation on storage,"[2]; 25 ± 2° C., after 36 months",The above stability data confirms that crystalline DOTAP chloride is a stable substance. Even after 36-months no significant degradation was observed for the samples stored at 25 ± 2 °C
same,"remaining content of (2R,S)-DOTAP chloride (HPLC)",[2]; [14],99.5 % by weight
same,"remaining content/purity of (2R,S)-DOTAP chloride (HPLC)",[2]; [14],99.7 Area-%
same,"remaining content of (2R,S)-DOTAP chloride (HPLC)",[2]; [15],99.6 % by weight
same,"remaining content/purity of (2R,S)-DOTAP chloride (HPLC)",[2]; [15],99.6 Area-%
same,"remaining content of (2R,S)-DOTAP chloride (HPLC)",[2]; [16],99.6 % by weight
same,"remaining content/purity of (2R,S)-DOTAP chloride (HPLC)",[2]; [16],99.4 Area-%
same,"remaining content of (2R,S)-DOTAP chloride (HPLC)",[2]; [17],98.9 % by weight
same,"remaining content/purity of (2R,S)-DOTAP chloride (HPLC)",[2]; [17],99.3 Area-%
same,"remaining content of (2R,S)-DOTAP chloride (HPLC)",[2]; [18],99.7 % by weight
same,"remaining content/purity of (2R,S)-DOTAP chloride (HPLC)",[2]; [18],99.4 Area-%
same,degradation on storage,"[2]; accelerated conditions, 40 ± 2° C., after 12 months",The above stability data confirms that crystalline DOTAP Chloride is a stable substance. Even at accelerated conditions after 12-months no significant degradation was observed for the samples stored at 40 ± 2 °C
same,stability determined by HPLC in relation to the starting value,[2]; stored at 25° C. for 36 months,higher than 99 % by weight and area-%
same,stability determined by HPLC in relation to the starting value,[2]; stored at 40° C. for 12 months,higher than 99 % by weight and area-%
same,solubility in acetonitrile,[6],virtually insoluble
